Like-named read-outs stand apart in the source and are kept apart here.
Assays:
PC3 = PC3 proliferation; assay type: cell-based; details: Homo sapiens, PC-3; PC3 cell line (compounds before 438)
T47D = T47D proliferation; assay type: cell-based; details: Homo sapiens; T47D cell line
PI3K γ = PI3K γ (Homo sapiens, UniProt P48736); test: PI 3-Kinase (human) HTRF assay, p110γ
PI3K α = PI3K α (Homo sapiens, UniProt P42336); test: PI 3-Kinase (human) HTRF assay, p110α/p85α
PI3K β = PI3K β (Homo sapiens, UniProt P42338); test: PI 3-Kinase (human) HTRF assay, p110β/p85α
Sequence of PI3K β (P42338 whole entry): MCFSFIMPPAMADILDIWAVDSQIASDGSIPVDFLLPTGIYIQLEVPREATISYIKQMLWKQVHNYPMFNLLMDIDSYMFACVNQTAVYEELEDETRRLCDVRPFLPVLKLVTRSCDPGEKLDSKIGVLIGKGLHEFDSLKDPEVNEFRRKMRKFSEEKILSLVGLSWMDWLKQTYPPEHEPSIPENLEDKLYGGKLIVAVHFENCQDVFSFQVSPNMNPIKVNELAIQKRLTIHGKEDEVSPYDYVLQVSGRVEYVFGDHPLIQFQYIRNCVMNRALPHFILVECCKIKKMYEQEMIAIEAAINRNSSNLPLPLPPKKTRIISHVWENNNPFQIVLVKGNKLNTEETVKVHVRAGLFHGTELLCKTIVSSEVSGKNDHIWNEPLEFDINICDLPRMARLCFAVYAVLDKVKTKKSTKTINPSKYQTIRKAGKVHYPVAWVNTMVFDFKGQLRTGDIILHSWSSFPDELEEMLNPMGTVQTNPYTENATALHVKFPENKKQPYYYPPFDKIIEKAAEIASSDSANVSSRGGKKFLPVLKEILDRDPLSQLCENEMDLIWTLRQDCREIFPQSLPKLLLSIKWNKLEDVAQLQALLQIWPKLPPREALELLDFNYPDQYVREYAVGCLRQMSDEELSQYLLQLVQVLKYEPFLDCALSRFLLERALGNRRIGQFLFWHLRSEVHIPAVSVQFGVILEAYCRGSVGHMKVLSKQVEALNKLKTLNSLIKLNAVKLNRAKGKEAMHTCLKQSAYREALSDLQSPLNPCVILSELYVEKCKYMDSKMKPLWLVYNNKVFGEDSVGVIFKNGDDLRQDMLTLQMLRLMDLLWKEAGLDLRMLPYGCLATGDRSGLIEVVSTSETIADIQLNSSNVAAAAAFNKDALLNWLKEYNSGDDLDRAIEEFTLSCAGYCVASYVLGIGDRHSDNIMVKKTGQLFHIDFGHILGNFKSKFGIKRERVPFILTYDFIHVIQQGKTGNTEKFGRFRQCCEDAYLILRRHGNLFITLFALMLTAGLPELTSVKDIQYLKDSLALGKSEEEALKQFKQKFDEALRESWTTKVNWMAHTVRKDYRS
Sequence of PI3K β (P27986 whole entry partner): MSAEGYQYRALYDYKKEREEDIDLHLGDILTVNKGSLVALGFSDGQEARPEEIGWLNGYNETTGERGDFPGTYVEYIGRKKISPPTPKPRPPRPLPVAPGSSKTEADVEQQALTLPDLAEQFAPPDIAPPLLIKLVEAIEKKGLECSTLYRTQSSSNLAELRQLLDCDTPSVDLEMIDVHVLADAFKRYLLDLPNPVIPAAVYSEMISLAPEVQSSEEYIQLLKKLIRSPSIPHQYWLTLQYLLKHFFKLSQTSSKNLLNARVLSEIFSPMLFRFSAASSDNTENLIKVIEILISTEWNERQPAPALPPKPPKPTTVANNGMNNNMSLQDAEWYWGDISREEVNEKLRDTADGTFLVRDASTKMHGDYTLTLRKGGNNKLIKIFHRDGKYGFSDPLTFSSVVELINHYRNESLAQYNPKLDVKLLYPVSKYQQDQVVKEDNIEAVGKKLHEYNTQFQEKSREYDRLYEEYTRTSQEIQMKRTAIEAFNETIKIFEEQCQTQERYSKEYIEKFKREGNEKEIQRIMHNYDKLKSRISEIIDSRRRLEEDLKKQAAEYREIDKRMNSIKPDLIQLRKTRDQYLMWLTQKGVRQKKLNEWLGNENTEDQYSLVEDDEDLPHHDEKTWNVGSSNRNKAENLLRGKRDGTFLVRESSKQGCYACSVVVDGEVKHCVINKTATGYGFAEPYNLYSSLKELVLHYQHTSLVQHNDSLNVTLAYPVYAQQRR

PI3K δ = PI3K δ (Homo sapiens, UniProt O00329); test: PI 3-Kinase (human) HTRF assay, p110δ/p85α
Sequence of PI3K δ (O00329 whole entry): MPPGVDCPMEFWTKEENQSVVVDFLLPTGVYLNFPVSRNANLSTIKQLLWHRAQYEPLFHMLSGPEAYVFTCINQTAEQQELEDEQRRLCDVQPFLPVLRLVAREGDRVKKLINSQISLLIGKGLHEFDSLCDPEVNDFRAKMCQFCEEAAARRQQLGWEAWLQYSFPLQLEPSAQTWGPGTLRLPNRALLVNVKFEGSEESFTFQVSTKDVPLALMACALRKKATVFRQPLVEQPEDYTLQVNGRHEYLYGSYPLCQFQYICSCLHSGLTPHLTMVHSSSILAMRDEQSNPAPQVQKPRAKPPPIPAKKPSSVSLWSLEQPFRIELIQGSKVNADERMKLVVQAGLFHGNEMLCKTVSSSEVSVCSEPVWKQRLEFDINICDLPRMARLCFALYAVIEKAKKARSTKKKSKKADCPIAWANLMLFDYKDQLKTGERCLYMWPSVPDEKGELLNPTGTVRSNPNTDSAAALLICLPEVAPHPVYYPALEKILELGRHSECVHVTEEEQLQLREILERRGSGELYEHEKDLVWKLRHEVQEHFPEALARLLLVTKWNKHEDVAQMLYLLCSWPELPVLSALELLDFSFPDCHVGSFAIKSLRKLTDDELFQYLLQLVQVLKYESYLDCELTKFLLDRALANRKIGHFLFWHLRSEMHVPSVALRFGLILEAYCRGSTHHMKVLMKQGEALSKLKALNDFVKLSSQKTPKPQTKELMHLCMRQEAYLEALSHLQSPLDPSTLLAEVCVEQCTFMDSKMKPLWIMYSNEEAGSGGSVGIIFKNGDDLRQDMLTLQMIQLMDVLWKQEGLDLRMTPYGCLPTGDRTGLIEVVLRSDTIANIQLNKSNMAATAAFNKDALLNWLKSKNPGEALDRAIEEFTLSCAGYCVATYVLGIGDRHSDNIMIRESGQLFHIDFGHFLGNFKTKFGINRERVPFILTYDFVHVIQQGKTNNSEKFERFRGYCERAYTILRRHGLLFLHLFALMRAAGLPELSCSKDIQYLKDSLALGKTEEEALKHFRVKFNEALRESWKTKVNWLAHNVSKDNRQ
Sequence of PI3K δ (P27986 whole entry partner): as the sequence (P27986 whole entry partner) above

mTOR = molecular target: T1, mTOR (Homo sapiens, UniProt P42345); test: Inhibition assay of mTOR (radiometric or LanthaScreen TR-FRET); assay type: biochemical; details: read-out: mTORC IC50
T1 construct: purchased Invitrogen

MDA-MB-361 = MDA-MB-361 proliferation; assay type: cell-based; details: Homo sapiens
B cell function = B cell function in vivo, antibody production after TNP-Ficoll immunization; details: mice immunized with TNP-Ficoll; 70 mg/kg GDC0941; 30, 60 or 120 mg/kg Compound A; 7 days; FIG. 8
Procedure: Mice were immunized with TNP-Ficoll and treated with 1) vehicle; 2) 70 mg/kg GDC0941; 3) 30 mg/kg Compound A; 4) 60 mg/kg Compound A; or 5) 120 mg/kg Compound A for 7 days. Antibody production was measured as a percentage of control group that were treated with vehicle.

[1] = test system: MDA-MB-361 (PI3Kα/HER2 carcinoma) tumors; test: In vivo efficacy in xenogenic mouse model of breast cancer; parameters: species or system nude mice; details: 70 mg/kg Pan-PI3K inhibitor; 60 mg/kg compound A
Procedure: Blood glucose was monitored periodically following administration of treatment.
Treatment of tumors (MDA-MB-361) with compounds was discontinued on Day 30. Tumors were measured every 2-5 days.

[2] = test system: anti-TNP antibody production (B cell function); test: TNP-Ficoll T-cell independent B-cell activation assay; assay type: in vivo, mice; details: 70 mg/kg GDC0941; 30, 60 or 120 mg/kg Compound A; 7 days
Procedure: To test the effects of the compounds of the present invention in suppressing T cell independent antibody production, the TNP-Ficoll B-cell activation assay is used as described herein. Compounds of the present invention are dissolved in an appropriate vehicle (e.g. 5% 1-methyl-2-pyrrolidinone, 85% polyethylene glycol 400, 10% Solutor). Compounds are administered orally approximately lhr before TNP-Ficoll treatment to 4-10 week old mice. To study the effects of the compounds on B-cell activation, one set of mice are grouped according to the following table:
Four animals in group 1, and eight animals in groups 2 to 7 are euthanized in CO2 2 hours after the last compound administration on day 7. […]
Serum samples are analyzed for anti-TNP antibody titers by ELISA as described herein. […] HRP substrate (200 μl ABTS solution+30% H2O2+10 ml citrate buffer) is added to each well at 100 μl/well, incubated 2-20 minutes in the dark and the amount of anti-TNP IgG3 is determined spectrophotometrically at 405 nm. Similarly, anti-TNP IgM and total anti-TNP Ab are determined using anti-mouse IgM-HRP and anti-mouse Ig-HRP respectively.
Antibody production was measured using ELISA and plotted as a percentage of control group that were treated with vehicle.

marginal zone B cells = test: Marginal zone B cells in mouse spleen (FACS); details: 70 mg/kg Pan-PI3K inhibitor; 60 mg/kg Compound A; spleens 2 hrs after last dose

Sequence of PI3K α (P42336 whole entry): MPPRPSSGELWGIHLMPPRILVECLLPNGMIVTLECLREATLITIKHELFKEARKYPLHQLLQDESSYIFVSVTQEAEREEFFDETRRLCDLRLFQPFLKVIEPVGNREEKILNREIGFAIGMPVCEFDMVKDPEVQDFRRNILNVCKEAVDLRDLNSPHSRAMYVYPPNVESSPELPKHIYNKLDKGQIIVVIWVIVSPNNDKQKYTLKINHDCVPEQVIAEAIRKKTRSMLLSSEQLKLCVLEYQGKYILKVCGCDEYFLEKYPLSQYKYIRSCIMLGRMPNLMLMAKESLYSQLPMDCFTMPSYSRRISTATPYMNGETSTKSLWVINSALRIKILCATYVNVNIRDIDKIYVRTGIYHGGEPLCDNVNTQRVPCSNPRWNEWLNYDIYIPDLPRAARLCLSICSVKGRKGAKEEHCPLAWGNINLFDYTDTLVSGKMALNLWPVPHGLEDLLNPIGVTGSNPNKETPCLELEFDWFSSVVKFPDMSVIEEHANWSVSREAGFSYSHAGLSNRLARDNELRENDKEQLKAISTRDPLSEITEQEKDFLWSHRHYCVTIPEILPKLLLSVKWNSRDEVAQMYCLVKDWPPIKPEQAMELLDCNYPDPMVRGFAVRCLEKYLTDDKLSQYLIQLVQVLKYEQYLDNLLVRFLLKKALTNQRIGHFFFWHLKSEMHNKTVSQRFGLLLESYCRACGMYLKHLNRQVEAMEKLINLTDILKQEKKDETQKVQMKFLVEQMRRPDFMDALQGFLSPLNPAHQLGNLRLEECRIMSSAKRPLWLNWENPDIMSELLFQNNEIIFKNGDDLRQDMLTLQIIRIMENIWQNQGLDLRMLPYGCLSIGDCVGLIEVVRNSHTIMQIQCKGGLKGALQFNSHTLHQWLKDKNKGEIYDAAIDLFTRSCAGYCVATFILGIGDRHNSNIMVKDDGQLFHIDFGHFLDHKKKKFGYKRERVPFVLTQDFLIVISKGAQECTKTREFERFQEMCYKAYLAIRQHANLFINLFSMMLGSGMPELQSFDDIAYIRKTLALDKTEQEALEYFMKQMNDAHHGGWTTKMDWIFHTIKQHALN
Sequence of PI3K α (P27986 whole entry partner): as the sequence (P27986 whole entry partner) above
Sequence of PI3K γ (P48736 whole entry): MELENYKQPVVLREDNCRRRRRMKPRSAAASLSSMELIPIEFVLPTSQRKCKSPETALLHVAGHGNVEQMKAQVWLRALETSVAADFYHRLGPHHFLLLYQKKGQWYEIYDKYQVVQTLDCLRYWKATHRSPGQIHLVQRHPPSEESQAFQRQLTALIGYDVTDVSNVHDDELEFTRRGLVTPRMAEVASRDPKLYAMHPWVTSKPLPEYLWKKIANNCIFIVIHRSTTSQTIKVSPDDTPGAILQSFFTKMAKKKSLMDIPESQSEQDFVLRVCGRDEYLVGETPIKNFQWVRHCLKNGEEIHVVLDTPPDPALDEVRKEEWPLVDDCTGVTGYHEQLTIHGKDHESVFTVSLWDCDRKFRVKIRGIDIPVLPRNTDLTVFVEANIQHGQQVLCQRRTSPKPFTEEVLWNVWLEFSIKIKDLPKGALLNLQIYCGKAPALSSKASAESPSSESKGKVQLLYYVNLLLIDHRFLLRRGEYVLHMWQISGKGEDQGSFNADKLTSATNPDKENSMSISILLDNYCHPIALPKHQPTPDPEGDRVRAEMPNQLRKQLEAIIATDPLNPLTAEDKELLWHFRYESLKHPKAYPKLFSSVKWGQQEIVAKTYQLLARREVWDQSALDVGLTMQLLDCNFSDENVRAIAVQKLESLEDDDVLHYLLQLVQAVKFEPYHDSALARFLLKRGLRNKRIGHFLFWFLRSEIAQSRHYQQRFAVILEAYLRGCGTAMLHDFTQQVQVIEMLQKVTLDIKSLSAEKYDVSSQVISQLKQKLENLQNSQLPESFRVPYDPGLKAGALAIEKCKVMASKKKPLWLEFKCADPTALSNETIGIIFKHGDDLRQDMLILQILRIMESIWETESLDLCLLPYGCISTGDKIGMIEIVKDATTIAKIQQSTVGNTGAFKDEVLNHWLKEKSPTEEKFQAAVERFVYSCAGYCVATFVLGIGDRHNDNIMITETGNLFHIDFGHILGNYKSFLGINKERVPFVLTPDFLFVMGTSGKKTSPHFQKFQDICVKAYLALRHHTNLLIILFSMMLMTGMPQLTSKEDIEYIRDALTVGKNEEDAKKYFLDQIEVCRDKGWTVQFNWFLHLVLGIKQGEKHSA

| SMILES | IC50 (PI3K γ) [nM] | IC50 (PI3K β) [nM] | IC50 (PI3K δ) [nM] | also measured |
| --- | --- | --- | --- | --- |
| Nc1nc2cc(-c3ccc4nccc(-c5ccncc5)c4c3)ccc2o1 [Compound 1] | – | – | – | IC50 (PC3): < 1000 nM; IC50 (T47D): < 1000 nM |
| CN1CCC(N(C)c2ncnc3ccc(-c4ccc5oc(N)nc5c4)cc23)CC1 [Compound 155] | < 1000 | – | – | – |
| CC1CN(C(=O)c2cnc3ccc(-c4ccc5oc(N)nc5c4)cn23)CCN1 (centres unmarked) [Compound 164] | – | – | – | IC50 (T47D): < 1000 nM |
| CC(C)[C@H](N)C(=O)N1CCN(c2cnc3ccc(-c4ccc5oc(N)nc5c4)cc3n2)CC1 [Compound 269] | < 10000 | – | – | – |
| CC(C)[C@@H](N)C(=O)N1CCN(c2cnc3ccc(-c4ccc5oc(N)nc5c4)cc3n2)CC1 [Compound 270] | < 1000 | – | – | – |
| C[C@H]1CN(c2cnc3ccc(-c4ccc5oc(N)nc5c4)cc3n2)CCN1C [Compound 332] | < 1000 | – | – | – |
| Nc1nc2cc(-c3ccc4ncc(N5CC[C@H](N6CCOCC6)C5)nc4c3)ccc2o1 [Compound 375] | < 100 | – | < 10000 | – |
| CN1CCN([C@@H]2CCN(c3cnc4ccc(-c5ccc6oc(N)nc6c5)cc4n3)C2)CC1 [Compound 379] | – | – | – | IC50 (mTOR): > 10000 nM |
| O=C(c1cnc2ccc(-c3ccc(Cl)c(NS(=O)(=O)c4ccc(F)cc4F)c3)cn12)N1CCOCC1 [Compound 461] | < 1000 | – | – | – |
| Nc1nc2cc(-c3ccc4ncc(C(=O)N5CC[C@H](F)C5)n4c3)ccc2o1 [Compound 476] | < 1000 | – | < 10000 | – |
| Nc1nc2cc(-c3ccc4ncc(C(=O)N5CC[C@H](n6cccn6)C5)n4c3)ccc2o1 [Compound 478] | – | – | – | PI3K δ IC50 (nM) (PI3K δ): +++ +++ |
| Nc1nc2cc(-c3ccc4ncc(N5CC(N6CCOCC6)C5)nc4n3)ccc2o1 [Compound 604] | < 1000 | < 10000 | – | IC50 (mTOR; Table 4, PI3K α inhibitors): > 10000 nM |
| CS(=O)(=O)N1CCN(Cc2cc3nc(-c4cccc5[nH]ncc45)nc(N4CCOCC4)c3s2)CC1 [Pan-PI3K inhibitor, GDC0941, reference compound] | – | – | – | B cell function in vivo (antibody production, percentage of vehicle control) (B cell function): blocks B cell function; tumor weight in breast cancer model (FIG. 9 left panel) [1]: reduction in tumor weight; B cell function in vivo, antibody production after TNP-Ficoll (FIG. 8) [2]: blocks B cell function in vivo; presence (localization/viability) of marginal zone B cells in mouse spleen (FIG. 9 right panel) (marginal zone B cells): reduced presence of MZB cells |

Now from value to molecule, other results behind:

| IC50 (PI3K γ) [nM] | IC50 (PI3K β) [nM] | IC50 (PI3K δ) [nM] | SMILES | also measured |
| --- | --- | --- | --- | --- |
| < 100 | < 10000 | < 100 | Nc1nc2cc(-c3ccc4ncc(N[C@H]5CC[C@H](O)CC5)nc4c3)ccc2o1 [Compound 128] | IC50 (PI3K α): < 100 nM |
| – | < 100 | < 10000 | Nc1nc2cc(-c3ccc4ncc(N5CCNC(=O)C5)nc4c3)ccc2o1 [Compound 135] | – |
| < 10000 | – | – | Nc1nc2cc(-c3ccc4ncc(N5CCC(N)CC5)nc4c3)ccc2o1 [Compound 168] | – |
| < 100 | < 100 | < 1000 | CN1CCC(NC(=O)c2cnc3ccc(-c4ccc5oc(N)nc5c4)cn23)CC1 [Compound 203] | – |
| < 1000 | – | – | CN1CCN(CCNC(=O)c2cnc3ccc(-c4ccc5oc(N)nc5c4)cn23)CC1 [Compound 306] | – |
| < 100 | < 1000 | < 10000 | Nc1nc2cc(-c3ccn4ncc(C(=O)N5CCOCC5)c4c3)cc(Cl)c2o1 [Compound 359] | IC50 (PI3K α): < 100 nM |
| < 100 | > 10000 | > 10000 | Nc1nc2cc(-c3ccc4ncc(C(=O)N5CC(N6CC[C@@H](O)C6)C5)n4c3)ccc2o1 [Compound 470] | – |
| < 10000 | < 10000 | < 1000 | O=C(c1cnc2ccc(-c3ccc4c(Nc5ccccc5)noc4c3)cn12)N1CCOCC1 [Compound 509] | IC50 (MDA-MB-361; PC-3, read-out: PC3 proliferation (nM)*): < 10000 nM; IC50 (PI3K α): < 100 nM |
| < 100 | – | – | [2H]c1c(-c2ccc3ncc(C(=O)N4CCOCC4)n3c2)c([2H])c2nc(N)oc2c1[2H] [Compound 531] | – |
| > 10000 | > 10000 | > 10000 | CN1CCN(c2cnc3ccc(-c4ccc5nc(N)oc5c4)cn23)CC1 [Compound 542] | IC50 (PI3K α): > 10000 nM |
| < 100 | – | < 10000 | Nc1nc2cc(-c3ccc4ncc(-c5cccnc5)nc4n3)ccc2o1 [Compound 567] | IC50 (MDA-MB-361; MDA-MB-361 cells, Table 4, read-out: MDA-MB-361 proliferation (nM)*): > 10000 nM; IC50 (PI3K α): < 100 nM |

Reference: patent US20160089371A1, “Combination of Kinase Inhibitors and Uses Thereof” (INTELLIKINE, LLC, priority 2013, published 2016)
